Laboratory results published in patent US20240344241A1, “PROTEINACEOUS MOLECULES AND USES THEREFOR” (THE UNIVERSITY OF QUEENSLAND, priority 2021, published 2024).
Bridge positions count the residues as written; N and C are the ends. Peptide text beside a SMILES is read from it.

Experiments:
Human β-FXIIa [1] = molecular target: T1, Human β-FXIIa (Homo sapiens, UniProt P00748); assay: FXIIa competitive inhibition assay, fluorescent substrate Boc-QGR-MCA; format: biochemical
T1 construct: Human β-FXIIa was obtained from Molecular Innovations, together with human FXa, human FXIa, human α-thrombin, and human plasma kallikrein; purchased Molecular Innovations; host or cells: purified from human plasma
From the text: Cyclic [I7F]MCoFx1 (also referred to as cyclic MCoFx6) was synthesized using solid phase peptide synthesis ([[…]] [SEQ ID NO: 97]). For this inhibitor, Tyr33 was mutated back to serine as per the original mRNA display screen (FIG. 1). Cyclic MCoFx6 was screened using a competitive inhibition assay, with the substrate being changed from a colorimetric substrate (Ac-QRFR-pNA in the data of Tables 7 and 10) to a fluorescent substrate (Boc-QGR-MCA) to allow the assay to be run with a lower concentration of enzyme. The assay was performed as described for Examples 2 and 3, except that the FXIIa concentration was 0.5 nM and the substrate concentration was 50 μM (KM=187 μM).
The new variants were screened using competitive inhibition assays, with the substrate being changed from a colorimetric substrate (Ac-QRFR-pNA in the data of Tables 7 and 10) to a fluorescent substrate (Boc-QGR-MCA) to allow the assay to be run with a lower concentration of enzyme. Assays were performed as described for Examples 2 and 3, except that the FXIIa concentration was 0.5 nM and the substrate concentration was 50 μM (KM=187 μM). […] The effect of amino acid substitutions within loop 2 (Arg12, Arg13), loop 5 (Ala25, Arg27) or loop 6 (Asp34) on the activity of cyclic MCoFx7 against FXIIa was determined (refer to Table 14). […] Additionally, mutating Arg to Glu (reversing the side chain charge) only led to two-fold weaker activity. The adjacent residue Arg13 could also be mutated to Lys with no change in activity. Within loop 5, mutating Ala25 to Lys produced a slight gain in activity, whereas the Ala to Pro mutation led to a slight decrease in activity. Both mutations at Arg27 led to losses in activity in the order of two-fold (His) or 3.2-fold (Gly).
(§1) The activity of acyclic and cyclic MCoFx1-5 and analogues thereof was assessed in competitive inhibition assays, as previously described in Swedberg et al. (2016) J Med Chem, 59: 7287-7292. Human β-FXIIa was obtained from Molecular Innovations, together with human FXa, human FXIa, human α-thrombin, and human plasma kallikrein. Human cationic trypsin and human plasmin were obtained from Sigma-Aldrich, and recombinant human matriptase was sourced from R&D Systems. Recombinant human urokinase (uPA) and recombinant human tissue plasminogen activator (tPA) were expressed in Expi293 cells, as previously described in Li et al. (2019) Chembiochem, 20: 46-50. FXIIa inhibition assays were performed in clear, low-binding 96-well plates using 250 μL (final volume) of assay buffer (0.1 M Tris-HCl pH 8.0, 0.1 M NaCl, 10 mM CaCl2 and 0.005% Triton X-100). Inhibitors were serially diluted and incubated with 10 nM FXIIa at room temperature to reach equilibrium. After adding 100 μM Ac-QRFR-pNA substrate (KM=162 μM), enzymatic activity was measured by monitoring release of the pNA moiety using a TECAN infinite M1000 Pro plate reader (A=405 nm, reading interval, 10 s; assay time course, 7 min). Assays were conducted in three times in duplicate. Substrate kinetic constants (Michaelis-Menten) and inhibition constants (Morrison K) were determined by non-linear regression using Prism 7 (GraphPad). Selectivity assays with off-target proteases were performed in a similar way, except that different concentrations of enzyme and substrate were used, as indicated in Table 16. For assays using a fluorescent substrate (peptide-4-methylcoumaryl-7-amide, MCA), black low-binding 96-well plates were used and activity was measured using a TECAN infinite M1000 pro plate reader (λex 360 nm, λem 460 nm, reading interval, 30 s; assay time course, 5-30 min).

bovine trypsin = molecular target: T2, bovine trypsin (Bos taurus, UniProt P00760); assay: Surface plasmon resonance binding to trypsin; conditions: for affinity for trypsin (in words): SPR
T2 sequence (P00760 24-246): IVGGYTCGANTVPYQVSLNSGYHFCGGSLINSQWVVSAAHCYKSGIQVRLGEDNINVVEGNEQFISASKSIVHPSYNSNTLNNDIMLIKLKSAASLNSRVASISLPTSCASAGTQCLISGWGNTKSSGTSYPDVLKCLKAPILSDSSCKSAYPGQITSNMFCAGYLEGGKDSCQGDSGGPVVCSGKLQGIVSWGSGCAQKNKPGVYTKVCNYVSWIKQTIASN

Human β-FXIIa [2] = molecular target: T1, Human β-FXIIa; assay: FXIIa competitive inhibition assay, colorimetric substrate Ac-QRFR-pNA; format: biochemical
Procedure: as §1

T1 sequence (P00748 373-615 limits assumed, other chains not shown): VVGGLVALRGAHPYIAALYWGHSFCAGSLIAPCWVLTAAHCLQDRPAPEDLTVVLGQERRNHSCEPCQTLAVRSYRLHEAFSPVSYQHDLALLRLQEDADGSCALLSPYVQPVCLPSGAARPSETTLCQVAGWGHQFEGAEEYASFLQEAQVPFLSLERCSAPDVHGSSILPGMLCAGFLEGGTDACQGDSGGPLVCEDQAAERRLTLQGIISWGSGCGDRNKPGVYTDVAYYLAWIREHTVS

Structure (SMILES)	Ki (Human β-FXIIa [1]) [nM]	affinity for trypsin (in words) (bovine trypsin)	further results
CC[C@H](C)[C@@H]1NC(=O)CNC(=O)CNC(=O)[C@H](CC(=O)O)NC(=O)[C@H](CO)NC(=O)CNC(=O)[C@H](CO)NC(=O)CNC(=O)[C@@H]2CSSC[C@@H]3NC(=O)[C@H](CC(=O)O)NC(=O)[C@H](CO)NC(=O)[C@H](CC(=O)O)NC(=O)[C@H](CCCNC(=N)N)NC(=O)[C@H](CCCNC(=N)N)NC(=O)[C@@H]4CSSC[C@H](NC(=O)[C@H]([C@@H](C)CC)NC(=O)[C@H](CSSC[C@H](NC1=O)C(=O)N1CCC[C@H]1C(=O)N[C@@H](CCCNC(=N)N)C(=O)N[C@@H]([C@@H](C)CC)C(=O)NCC(=O)N[C@@H](CCCNC(=N)N)C(=O)N[C@@H](CC(C)C)C(=O)N4)NC(=O)[C@H](C)NC(=O)CNC(=O)[C@@H]1CCCN1C3=O)C(=O)N[C@@H](CCCNC(=N)N)C(=O)N[C@@H](CCCCN)C(=O)N[C@@H]([C@@H](C)O)C(=O)N[C@@H](CCCNC(=N)N)C(=O)N[C@@H](Cc1ccccc1)C(=O)N2 [Cyclic [A25K]MCoFx7] (cyclo(ACICRKTRFCGSGSDGGICPRIGRLCRRDSDCPG); disulfide 2-19, 4-26, 10-32)	0.046 ± 0.005		
CC[C@H](C)[C@@H]1NC(=O)CNC(=O)CNC(=O)[C@@H]2CCCN2C(=O)[C@H](CO)NC(=O)CNC(=O)[C@H](CO)NC(=O)CNC(=O)[C@@H]2CSSC[C@@H]3NC(=O)[C@H](CC(=O)O)NC(=O)[C@H](CO)NC(=O)[C@H](CC(=O)O)NC(=O)[C@H](CCCNC(=N)N)NC(=O)[C@H](CCCNC(=N)N)NC(=O)[C@@H]4CSSC[C@H](NC(=O)[C@H]([C@@H](C)CC)NC(=O)[C@H](CSSC[C@H](NC1=O)C(=O)N1CCC[C@H]1C(=O)N[C@@H](CCCNC(=N)N)C(=O)N[C@@H]([C@@H](C)CC)C(=O)NCC(=O)N[C@@H](CCCNC(=N)N)C(=O)N[C@@H](CC(C)C)C(=O)N4)NC(=O)[C@H](C)NC(=O)CNC(=O)[C@@H]1CCCN1C3=O)C(=O)N[C@@H](CCCNC(=N)N)C(=O)N[C@@H](C)C(=O)N[C@@H]([C@@H](C)O)C(=O)N[C@@H](CCCNC(=N)N)C(=O)N[C@@H](Cc1ccccc1)C(=O)N2 [Cyclic [D34P]MCoFx7] (cyclo(ACICRATRFCGSGSPGGICPRIGRLCRRDSDCPG); disulfide 2-19, 4-26, 10-32)	0.091		
CC[C@H](C)[C@@H]1NC(=O)CNC(=O)CNC(=O)[C@H](CC(=O)O)NC(=O)[C@H](CO)NC(=O)CNC(=O)[C@H](CO)NC(=O)CNC(=O)[C@@H]2CSSC[C@@H]3NC(=O)[C@H](CC(=O)O)NC(=O)[C@H](CO)NC(=O)[C@H](CC(=O)O)NC(=O)[C@H](CCCNC(=N)N)NC(=O)[C@H](CCC(=O)O)NC(=O)[C@@H]4CSSC[C@H](NC(=O)[C@H]([C@@H](C)CC)NC(=O)[C@H](CSSC[C@H](NC1=O)C(=O)N1CCC[C@H]1C(=O)N[C@@H](CCCNC(=N)N)C(=O)N[C@@H]([C@@H](C)CC)C(=O)NCC(=O)N[C@@H](CCCNC(=N)N)C(=O)N[C@@H](CC(C)C)C(=O)N4)NC(=O)[C@H](C)NC(=O)CNC(=O)[C@@H]1CCCN1C3=O)C(=O)N[C@@H](CCCNC(=N)N)C(=O)N[C@@H](C)C(=O)N[C@@H]([C@@H](C)O)C(=O)N[C@@H](CCCNC(=N)N)C(=O)N[C@@H](Cc1ccccc1)C(=O)N2 [Cyclic [R12E]MCoFx7] (cyclo(ACICRATRFCGSGSDGGICPRIGRLCERDSDCPG); disulfide 2-19, 4-26, 10-32)	0.13 ± 0.007		
CC[C@H](C)[C@@H]1NC(=O)[C@@H]2CSSC[C@H](NC(=O)[C@H](CCCNC(=N)N)NC(=O)CNC(=O)CNC(=O)[C@@H](N)CC(=O)O)C(=O)N[C@@H](CS)C(=O)NCC(=O)NCC(=O)N[C@@H](Cc3ccc(O)cc3)C(=O)N[C@@H](CC(C)C)C(=O)N[C@@H](C(C)C)C(=O)N[C@H]3CSSC[C@H](NC1=O)C(=O)N[C@@H](C(C)C)C(=O)N[C@@H](Cc1ccccc1)C(=O)N[C@@H](CCCCN)C(=O)N[C@@H](CCCCN)C(=O)N[C@@H](Cc1c[nH]cn1)C(=O)N[C@H](C(=O)NCC(=O)N[C@@H](CO)C(=O)NCC(=O)N[C@@H](CO)C(=O)O)CSSC[C@H](NC(=O)[C@H](CC(=O)O)NC(=O)[C@H](CO)NC(=O)[C@H](CC(=O)O)NC(=O)[C@H](CCCNC(=N)N)NC(=O)[C@H](CCCNC(=N)N)NC3=O)C(=O)N1CCC[C@H]1C(=O)NCC(=O)N[C@@H](C)C(=O)N2 [MCoFx5 acyclic] (H-DGGRCCGGYLVCRRDSDCPGACICVFKKHCGSGS-OH; disulfide 5-22, 12-24, 18-30)		Neither aMCoFx5 nor cMCoFx5 showed detectable affinity for trypsin	KD (nM) Trypsin Acyclic (bovine trypsin; Table 8, acyclic form): No binding
CC[C@H](C)[C@@H]1NC(=O)[C@@H]2CSSC[C@@H]3NC(=O)[C@H](CCCNC(=N)N)NC(=O)CNC(=O)CNC(=O)[C@H](CC(=O)O)NC(=O)[C@H](CO)NC(=O)CNC(=O)[C@H](CO)NC(=O)CNC(=O)[C@@H]4CSSC[C@H](NC(=O)[C@H](CC(=O)O)NC(=O)[C@H](CO)NC(=O)[C@H](CC(=O)O)NC(=O)[C@H](CCCNC(=N)N)NC(=O)[C@H](CCCNC(=N)N)NC(=O)[C@H](CSSC[C@H](NC1=O)C(=O)N[C@@H](C(C)C)C(=O)N[C@@H](Cc1ccccc1)C(=O)N[C@@H](CCCCN)C(=O)N[C@@H](CCCCN)C(=O)N[C@@H](Cc1c[nH]cn1)C(=O)N4)NC(=O)[C@H](C(C)C)NC(=O)[C@H](CC(C)C)NC(=O)[C@H](Cc1ccc(O)cc1)NC(=O)CNC(=O)CNC(=O)[C@H](CS)NC3=O)C(=O)N1CCC[C@H]1C(=O)NCC(=O)N[C@@H](C)C(=O)N2 [MCoFx5 cyclic] (cyclo(DGGRCCGGYLVCRRDSDCPGACICVFKKHCGSGS); disulfide 5-22, 12-24, 18-30)		Neither aMCoFx5 nor cMCoFx5 showed detectable affinity for trypsin	KD (nM) Trypsin Cyclic (bovine trypsin; Table 8, cyclic form): No binding
CC[C@H](C)[C@@H]1NC(=O)[C@H](CCCNC(=N)N)NC(=O)[C@@H]2CCCN2C(=O)[C@@H](NC(=O)[C@@H](NC(=O)[C@@H](N)CCCNC(=N)N)[C@@H](C)CC)CSSC[C@@H]2NC(=O)[C@H](C)NC(=O)CNC(=O)[C@@H]3CCCN3C(=O)[C@@H]3CSSC[C@@H](C(=O)NCC(=O)O)NC(=O)[C@H](Cc4ccccc4)NC(=O)[C@H](CCCNC(=N)N)NC(=O)[C@H]([C@@H](C)O)NC(=O)[C@H](C)NC(=O)[C@H](CCCNC(=N)N)NC(=O)[C@H](CSSC[C@H](NC(=O)[C@H](CC(C)C)NC(=O)[C@H](CCCNC(=N)N)NC(=O)CNC1=O)C(=O)N[C@@H](CCCNC(=N)N)C(=O)N[C@@H](CCCNC(=N)N)C(=O)N[C@@H](CC(=O)O)C(=O)N[C@@H](CO)C(=O)N[C@@H](CC(=O)O)C(=O)N3)NC(=O)[C@H]([C@@H](C)CC)NC2=O [SEQ ID NO: 84] (H-RICPRIGRLCRRDSDCPGACICRATRFCG-OH; disulfide 3-20, 10-22, 16-28)			Ki (Human β-FXIIa [2]): 1.4 nM
